Assay results reported in ChEMBL document CHEMBL5143519, “Exploring disordered loops in DprE1 provides a functional site to combat drug-resistance in Mycobacterium strains” (Eur J Med Chem, 2022).
Converted amounts (≈) assume the structure as drawn. The source made the active and inactive calls. No cut-off for these calls is given here.

Key:
[1] = target: T1, Decaprenylphosphoryl-beta-D-ribose oxidase (Mycobacterium tuberculosis (strain ATCC 25618 / H37Rv), UniProt P9WJF1); assay: Inhibition of Mycobacterium tuberculosis wild type DprE1 expressed in Escherichia coli BL21 DE3 assessed as formation of resorufin using FPR as substrate incubated for 10 mins by Amplex Red dye microplate assay
T1 sequence (P9WJF1 whole entry): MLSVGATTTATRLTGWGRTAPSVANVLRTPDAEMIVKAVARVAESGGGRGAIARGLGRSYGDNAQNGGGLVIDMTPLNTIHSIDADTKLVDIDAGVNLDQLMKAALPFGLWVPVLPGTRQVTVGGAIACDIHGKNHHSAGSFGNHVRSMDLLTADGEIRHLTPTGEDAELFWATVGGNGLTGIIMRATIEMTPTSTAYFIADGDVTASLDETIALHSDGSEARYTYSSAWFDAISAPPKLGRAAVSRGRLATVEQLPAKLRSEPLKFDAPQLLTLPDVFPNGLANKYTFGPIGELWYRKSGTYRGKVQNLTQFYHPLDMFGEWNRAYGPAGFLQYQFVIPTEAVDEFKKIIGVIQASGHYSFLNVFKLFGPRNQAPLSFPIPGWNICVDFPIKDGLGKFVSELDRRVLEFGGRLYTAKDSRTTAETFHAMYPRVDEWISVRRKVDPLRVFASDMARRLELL

[2] = system: Mycobacterium tuberculosis; assay: Antimycobacterial activity against Mycobacterium tuberculosis H37Rv assessed as inhibition of bacterial growth incubated for 7 days by microplate alamar blue assay; assay type: functional; conditions: 168 h, time 7 day
[3] = system: Mycobacterium tuberculosis; assay: Antimycobacterial activity against Mycobacterium tuberculosis H37Rv assessed as reduction in bacterial colony forming units at 20 times MIC concentration measured after 21 days by time kill assay; assay type: functional; conditions: time 21 day
[4] = system: Mycobacterium tuberculosis; assay: Antimycobacterial activity against Mycobacterium tuberculosis H37Rv infected in mouse macrophage J774A.1 cell assessed as reduction in bacterial colony forming units incubated for 21 days; assay type: functional; conditions: time 21 day
[5] = system: Mycolicibacterium smegmatis; assay: Antimycobacterial activity against Mycobacterium smegmatis mc2155 assessed as inhibition of bacterial growth incubated for 7 days by microplate alamar blue assay; assay type: functional; conditions: mc2155, 168 h, time 7 day
[6] = system: Mycolicibacterium smegmatis; assay: Antimycobacterial activity against Mycobacterium smegmatis wild type DprE1 assessed as inhibition of bacterial growth incubated for 7 days by microplate alamar blue assay; assay type: functional; conditions: 168 h, time 7 day
[7] = system: Mycobacterium tuberculosis; assay: Antimycobacterial activity against Mycobacterium tuberculosis H37Rv assessed as reduction in bacterial colony forming units at 20 times MIC concentration measured after 7 days by time kill assay; assay type: functional, organism-based; conditions: time 7.0 day

| Compound | IC50 [1] | MIC [2] | Activity [3] | Activity [4] | MIC [5] | MIC [6] | Activity [7] |
| --- | --- | --- | --- | --- | --- | --- | --- |
| O=C(NC(=O)c1ccsc1NC(=O)c1nc2ccccc2s1)OCC1CCCC1 | 22.4 µM | > 250 µM |  |  |  |  |  |
| CO[C@H]1/C=C/O[C@@]2(C)Oc3c(C)c(O)c4c(O)c(c(/C=N/N5CCN(C)CC5)c(O)c4c3C2=O)NC(=O)/C(C)=C\C=C\[C@H](C)[C@H](O)[C@@H](C)[C@@H](O)[C@@H](C)[C@H](OC(C)=O)[C@@H]1C [RIFAMPIN] |  | 0.11 µM (≈ 0.0905 µg/mL) | 3 log10CFU/ml | 1.1 log10CFU | 0.35 µM (≈ 0.288 µg/mL) |  |  |
| CCOC(=O)NC(=O)c1ccsc1NC(=O)c1ccc(C(C)=O)cc1 | 36.4 µM | > 300 µM |  |  |  |  |  |
| CCOC(=O)NC(=O)c1ccsc1NC(=O)c1nc2ccccc2s1 | 0.053 µM | 1.68 µM (≈ 0.631 µg/mL) | 3 log10CFU/ml | 0.6 log10CFU | 33.2 µM (≈ 12.5 µg/mL) | 0.23 µM (≈ 0.0863 µg/mL) |  |
| CCOC(=O)NC(=O)c1ccsc1NC(=O)c1nc2cnccc2s1 |  |  |  |  |  | 0.089 µM (≈ 0.0335 µg/mL) |  |
| CCOC(=O)NC(=O)c1ccsc1NC(=O)c1ccc(C#N)cn1 | 41.2 µM | > 300 µM |  |  |  |  |  |
| O=C(NC(=O)c1ccsc1NC(=O)c1nc2ccccc2s1)OCC1CC1 | 0.01 µM | 0.77 µM (≈ 0.309 µg/mL) | 3 log10CFU/ml | 1.1 log10CFU | 12.4 µM (≈ 4.99 µg/mL) |  | Active |
| O=C(NC(=O)c1ccsc1NC(=O)c1nc2ccccc2s1)OCC1CCCCC1 | > 64 µM | > 250 µM |  |  |  |  |  |
| O=C(NC(=O)c1ccsc1NC(=O)c1nc2ccccc2s1)OC1CCC1 | 18.6 µM | > 250 µM |  |  |  |  |  |
| CCOC(=O)NC(=O)c1cc(F)sc1NC(=O)c1nc2ccccc2s1 |  |  |  |  |  | 0.046 µM (≈ 0.0181 µg/mL) |  |
| N#Cc1ccc(C(=O)Nc2sccc2C(=O)NC(=O)OCC2CC2)cc1 | 18.9 µM | > 250 µM |  |  |  |  |  |
| O=C(NC(=O)c1ccsc1NC(=O)c1nc2ccccc2s1)OCC1CCC1 | 0.098 µM | 3.01 µM (≈ 1.25 µg/mL) |  | 0.9 log10CFU | 24.1 µM (≈ 9.99 µg/mL) |  |  |
| CC(=O)c1ccc(C(=O)Nc2sccc2C(=O)NC(=O)OCC2CC2)cc1 | 1.21 µM | 51.8 µM (≈ 20 µg/mL) |  |  |  |  |  |
| CCOC(=O)NC(=O)c1ccsc1NC(=O)c1ccc(C#N)cc1 | > 64 µM | > 300 µM |  |  |  |  |  |
| N#Cc1ccc(C(=O)Nc2sccc2C(=O)NC(=O)OCC2CC2)nc1 | 11.5 µM | 216 µM (≈ 79.8 µg/mL) |  |  |  |  |  |
